# Reference: patent EP2711369A1, “Liposomes containing tetraether lipid derivatives” (Bernina Plus GmbH, priority 2012, dated 2014)
# Test system: Brattleboro rats
# Assay: In vivo testing of liposomes: urine excretion after oral DDAVP
# Conditions: oral by gavage, DDAVP 10 µg/kg body weight
# Description: Liposomes composed of STEL-PC and cholesterol in a ratio of 1 : 2.5 with DDVAP encapsulated as active agent were studied in the Brattleboro model.
# Treatment with exogenous vasopression restores normal urinary function and exerts a temporal antidiuretic effect.
# Brattleboro rats were hold singly in metabolic cages with free access to tap water. DDAVP was administered orally by gavage at a dose of 10 µg/kg body weight either as free compound or in various formulations. Urine excretion was measured over 24 h in 1 h intervals using a fraction collector.
substance,measurement,value
1-desamino-8-D-arginine vasopressin [free DDAVP],inhibition of urine excretion (duration),approximately 2 hours
